The values below are quoted from earlier work in US20030220416A1, “Curable compositions with antimicrobial properties” (priority 1998, published 2003).

The conditions of series [1]: most of the compositions tested.
In series [2] the test system is S. mutans. The settings on record: MDPB incorporated in experimental composites.
Series [3] has as its system bacteria. The settings on record: MDPB incorporated in experimental composites.

Molecules are shown by their SMILES. Where two headings read alike, the source gives them in different places.

For the compound `Oc1cc(Cl)ccc1Oc1ccc(Cl)cc1Cl` [Triclosan, 2,4,4′-trichloro-2′hydroxydiphenyl ether], the “release of the triclosan into the surrounding medium” value in series [1] is given as 0.02 micrograms/ml. Further, the water solubility is 20 ppm (distilled water at 20° C.) and 20 ppm (distilled water at 50° C.).

As for `C=C(C)C(=O)OCCCCCCCCCCCC[n+]1ccccc1.[Br-]` [MDPB, methacryloyloxydodecylpyridinium bromide], the “attachment of S. mutans to surfaces of the restorative material” value in series [2] is recorded as “reduced”. Besides, the “zone of inhibition by the disk diffusion method” value in series [3] is reported as “no zone of inhibition was evident”.
